The values below come from PubChem BioAssay AID1996.

Converted amounts (≈) assume the structure as drawn. Where only a bound is given, the exact number is not on record here.

For the series the following is noted: buffer; pH 7.4; 200.0 µM.
`O=[N+]([O-])c1ccc(COc2cccc3cccnc23)cc1` registered a solubility (kinetic) of 2.4 µg/mL (≈ 8.56 µM).
Consider `CCOC(=O)c1c(-c2cccs2)csc1N`, for which the solubility (kinetic) was found to be 26.8 µg/mL (≈ 106 µM).
The value for `CCOc1ccccc1NC(=O)COC(=O)C1CC1` was more than 39.5 µg/mL; that for `CSc1ncccc1C(=O)OCC(=O)NCc1cccs1` was 35.8 µg/mL (≈ 111 µM).
With `COc1cccc(NC(=O)CCN2C(=O)C3CC=CCC3C2=O)c1` (stereo unspecified), the kinetic solubility was more than 49.3 µg/mL.
`Nc1cc(Nc2ccccc2)ccn1.O=P(O)(O)O` came in with a solubility (kinetic) of more than 42.5 µg/mL.
Next, `CCOC(=O)c1c(C)c2c(=O)[nH]cnc2n1-c1ccccc1`: 2.2 µg/mL (≈ 7.4 µM); `Cc1ccccc1N1C(=O)c2ccccc2C1O` (stereo unspecified): 35.8 µg/mL (≈ 150 µM); `CCOc1ccccc1NC(=O)c1cccc2ccccc12`: 7.7 µg/mL (≈ 26.4 µM).
Molecule `Cc1ccc(S(=O)(=O)NC(=O)COc2ccccc2)cc1` showed a kinetic solubility of more than 45.8 µg/mL.
The value for `OCc1c[nH]c2ccccc12` was 7 µg/mL (≈ 47.6 µM); that for `CC(C)CCNC(=O)CSc1nc2ccccc2s1` was 38.6 µg/mL (≈ 131 µM); that for `COc1cccc(C(=O)Nc2ccc(NC(=O)Cc3ccccc3)cc2)c1` was less than 0.4 µg/mL.
The value for `Oc1ccc(-c2cnc(-c3ccc(O)cc3)nc2)cc1` was 1.7 µg/mL (≈ 6.43 µM).
The value for `Cc1ccc(/C=C/C(=O)NCCc2ccccc2)o1` was 33.9 µg/mL (≈ 133 µM); that for `CC1c2cccn2CCN1S(=O)(=O)c1ccc(F)cc1` (stereo unspecified) was more than 44.2 µg/mL; that for `COc1ccccc1N(C)S(=O)(=O)c1ccc(Cl)c(C(=O)NCc2ccco2)c1` was 47.5 µg/mL (≈ 109 µM).
On to `O=C(NCC(=O)N1CC=C(c2ccccc2)CC1)c1ccc(F)cc1`, for which the solubility (kinetic) amounted to 9 µg/mL (≈ 26.6 µM).
The value for `O=C(Nc1ccc2oc(=O)ccc2c1)c1ccc(-c2cccc([N+](=O)[O-])c2)o1` was 3.5 µg/mL (≈ 9.3 µM); that for `Cc1cc(C(=O)NCC2CCCO2)sc1C` (stereo unspecified) was more than 35.9 µg/mL; that for `O=C(NC(=S)N1CCN(c2ccccc2)CC1)c1c(F)cccc1F` was more than 54.2 µg/mL.
`O=C(Nc1ccccc1Cl)c1ccccc1` came in with a solubility (kinetic) of 19.2 µg/mL (≈ 82.9 µM).
The value for `O=c1c(Cc2ccccc2)c(O)ccn1Cc1ccc2c(c1)OCO2` was 2.7 µg/mL (≈ 8.05 µM).
The value for `CC(=O)OCC(=O)Nc1ccccc1C` was more than 31.1 µg/mL; that for `O=C(CN1C(=O)NC2(CCCCC2)C1=O)NCc1ccc2c(c1)OCO2` was 42.8 µg/mL (≈ 119 µM); that for `NC(=O)COC(=O)CC12CC3CC(CC(Br)(C3)C1)C2` was more than 49.5 µg/mL.
The value for `CNc1ccc(C(=O)OCC(=O)NC(=O)NC2CCCC2)cc1[N+](=O)[O-]` was 1.7 µg/mL (≈ 4.67 µM); that for `O=C(NC1CCCCC1)C1COc2ccccc2O1` (stereo unspecified) was more than 39.2 µg/mL.
As to `O=C(NC1CCSc2ccccc21)c1c(F)cccc1Cl` (stereo unspecified), the solubility (kinetic) was determined as 7.2 µg/mL (≈ 22.4 µM).
The value for `O=C(c1ccc(NS(=O)(=O)c2ccccc2)cc1)N1CCOCC1` was more than 52 µg/mL; that for `O=C(CN1c2cccc3cccc(c23)S1(=O)=O)Nc1c(F)c(F)c(F)c(F)c1F` was 1.3 µg/mL (≈ 3.03 µM); that for `CC1CCN(C(=O)CSc2nnc(N)s2)CC1` was more than 40.9 µg/mL.
Next, `O=c1oc2c(O)cccc2cc1-c1nc2ccccc2[nH]1`: 1.1 µg/mL (≈ 3.95 µM).
Next, `Cc1ccc2nc(-c3ccc(N)cc3)sc2c1`: 1.1 µg/mL (≈ 4.58 µM); `CCCn1c(=O)c(C#N)cn(C2CC2)c1=O`: 32.4 µg/mL (≈ 148 µM).
In the case of `COc1cccc(CNc2ccc(S(=O)(=O)N3CCCC3)cn2)c1`, the solubility (kinetic) is 46 µg/mL (≈ 132 µM).
Next, `Nc1nc(NCCc2ccccc2)nc(NCc2ccccc2)c1[N+](=O)[O-]`: 0.2 µg/mL (≈ 0.549 µM); `Cn1c(N)c(C(=O)COC(=O)/C=C/c2ccccc2F)c(=O)n(C)c1=O`: 5.5 µg/mL (≈ 15.2 µM).
In the case of `O=C1CC(c2ccccc2)CC2=C1C=Nc1ccccc1N2` (stereo unspecified), the kinetic solubility came to 37 µg/mL (≈ 128 µM).
Take `C=CCNC(=S)/N=c1/ccccn1Cc1ccccc1`: the kinetic solubility is 39.6 µg/mL (≈ 140 µM).
Next, `Cc1cc(NC(=O)CN2C(=O)NC(C)(c3ccc(Cl)cc3Cl)C2=O)no1` (stereo unspecified): 7.4 µg/mL (≈ 18.6 µM).
The value for `Cc1ccc(C(=O)COC(=O)[C@@H](NC(=O)c2ccco2)C(C)C)s1` was more than 52.4 µg/mL.
The value for `c1ccc2c(c1)CSc1ccccc1N2` was 6.8 µg/mL (≈ 31.9 µM); that for `O=C(NCCCn1ccnc1)c1ccc(-c2cccc(C(F)(F)F)c2)o1` was more than 54.5 µg/mL.
`O=C(COC(=O)C1C2CC3OC(=O)C1C3C2)Nc1ccc(Cl)cc1` (stereo unspecified) returned a solubility (kinetic) of 48.8 µg/mL (≈ 140 µM).
The value for `COCCCNC(=O)/C(C#N)=C/c1cc(C)[nH]c1C` was more than 39.2 µg/mL; that for `O=[N+]([O-])c1cc(S(=O)(=O)N2CCOCC2)ccc1NS(=O)(=O)c1ccccc1` was more than 64.1 µg/mL; that for `COc1ccc(/C=C/C(=O)Nc2ccc(C)c(S(=O)(=O)N3CCOCC3)c2)cc1` was 7.4 µg/mL (≈ 17.8 µM).
Next, `CCOC(=O)c1ccc(NC(=O)c2cc(F)c(F)cc2Cl)cc1`: less than 0.7 µg/mL; `O=C(N/C(=C/c1cccc([N+](=O)[O-])c1)C(=O)N1CCCC1)c1ccccc1`: 51.9 µg/mL (≈ 142 µM); `COc1ccc(-c2cn3cc([N+](=O)[O-])ccc3n2)cc1OC`: 16.6 µg/mL (≈ 55.5 µM).

By kinetic solubility is commonly meant solubility judged after dilution from a stock solution rather than from solid.
